Results published in patent publication US20230115176A1 (Ra Pharmaceuticals, Inc., priority 2019, published 2023).
Values after ≈ are worked out from the molar mass of the structure shown.

Legend:
[1] = Kinetic solubility in PBS pH 7.4, HPLC-UV (Example 21, Table 27); type: physicochemical; settings: phosphate buffered saline, aqueous buffer, kinetic from dmso stock, 0.5 M PBS, shaken minimum 24 h at approximately 25° C., HPLC-UV 270 nm
Method in brief: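 10 mM DMSO stock diluted into 0.05 M PBS pH 7.4 (5% DMSO final), in triplicate, shaken ≥24 h at ~25 °C, then filtered by centrifugation. Supernatant concentration by HPLC-UV at 270 nm against external DMSO standards (15.6–500.0 μM).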

[2] = target: human C5 complement protein (Homo sapiens, UniProt P01031); test: Surface plasmon resonance (SPR), immobilized human C5, 37° C. (Example 18, Table 24); type: binding; settings: lowest value obtained where a range of concentrations was analyzed
Chain of human C5 complement protein (P01031 19-1676): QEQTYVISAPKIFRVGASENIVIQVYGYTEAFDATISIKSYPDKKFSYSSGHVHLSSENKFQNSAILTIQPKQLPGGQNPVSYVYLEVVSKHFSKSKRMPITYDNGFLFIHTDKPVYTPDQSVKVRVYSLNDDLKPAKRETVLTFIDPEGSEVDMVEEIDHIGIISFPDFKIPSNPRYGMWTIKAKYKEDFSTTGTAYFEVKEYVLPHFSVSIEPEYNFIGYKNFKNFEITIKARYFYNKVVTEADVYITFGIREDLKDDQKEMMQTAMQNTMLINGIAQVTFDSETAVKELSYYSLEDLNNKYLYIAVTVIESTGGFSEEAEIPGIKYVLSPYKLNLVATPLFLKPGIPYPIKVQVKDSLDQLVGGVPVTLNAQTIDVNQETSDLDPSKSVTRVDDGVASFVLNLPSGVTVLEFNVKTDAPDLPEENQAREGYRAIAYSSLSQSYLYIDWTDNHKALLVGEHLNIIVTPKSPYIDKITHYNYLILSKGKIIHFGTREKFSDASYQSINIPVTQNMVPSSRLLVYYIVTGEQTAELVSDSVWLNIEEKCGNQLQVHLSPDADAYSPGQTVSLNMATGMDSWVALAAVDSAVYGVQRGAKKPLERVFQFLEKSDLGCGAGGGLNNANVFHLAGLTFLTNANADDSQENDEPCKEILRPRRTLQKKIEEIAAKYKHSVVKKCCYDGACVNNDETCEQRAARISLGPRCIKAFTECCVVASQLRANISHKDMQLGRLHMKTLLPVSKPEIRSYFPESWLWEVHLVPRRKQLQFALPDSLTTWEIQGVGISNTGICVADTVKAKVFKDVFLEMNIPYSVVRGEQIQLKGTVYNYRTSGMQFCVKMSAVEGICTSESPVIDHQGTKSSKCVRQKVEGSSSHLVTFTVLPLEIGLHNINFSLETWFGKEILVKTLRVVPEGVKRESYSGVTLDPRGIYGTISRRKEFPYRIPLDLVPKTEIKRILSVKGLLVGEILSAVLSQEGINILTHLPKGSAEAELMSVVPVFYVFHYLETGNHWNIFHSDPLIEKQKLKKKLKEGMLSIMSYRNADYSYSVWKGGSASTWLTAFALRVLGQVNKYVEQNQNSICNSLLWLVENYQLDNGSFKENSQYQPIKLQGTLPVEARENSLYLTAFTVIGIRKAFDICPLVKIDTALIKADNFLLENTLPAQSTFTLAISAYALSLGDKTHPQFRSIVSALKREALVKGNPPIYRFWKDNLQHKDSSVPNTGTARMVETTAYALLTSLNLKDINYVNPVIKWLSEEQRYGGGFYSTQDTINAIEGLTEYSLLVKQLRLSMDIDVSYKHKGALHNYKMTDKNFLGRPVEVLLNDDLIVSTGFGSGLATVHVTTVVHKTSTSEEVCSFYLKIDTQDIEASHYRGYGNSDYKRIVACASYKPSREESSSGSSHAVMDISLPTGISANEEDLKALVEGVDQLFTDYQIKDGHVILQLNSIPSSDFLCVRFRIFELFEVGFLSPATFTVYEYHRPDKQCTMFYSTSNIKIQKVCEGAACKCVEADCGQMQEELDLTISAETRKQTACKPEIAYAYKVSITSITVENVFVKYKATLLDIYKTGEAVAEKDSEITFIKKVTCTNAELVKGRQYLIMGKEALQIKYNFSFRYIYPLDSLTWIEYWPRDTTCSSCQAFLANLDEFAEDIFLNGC

Compound	solubility kinetic [1]	Kd [2]
CCCCCOc1cc(N2CCCN(Cc3ccnc4c3c(Cl)cn4CC(=O)N3CCCC3)C2=O)ccc1OC [CU0541]	61 µM (≈ 34.7 µg/mL)	0.31 nM
COc1ccc(N2CCCN(Cc3ccnc4c3c(Cl)cn4CC(=O)N(C)C)C2=O)cc1OCCC[C@H]1C[C@H]1C (racemic) [CU0516]	30 µM (≈ 17 µg/mL)	0.15 nM
COc1cc(CC(=O)N(C)C)ccc1CN1CCCN(c2ccc(OC)c(OCCCCC(C)(C)C)c2)C1=O [CU0638]	30 µM (≈ 16.2 µg/mL)	0.094 nM
CCCCCOc1cc(N2CCCN(Cc3ccnc4c3c(Cl)cn4CC(=O)N(C)CCC#N)C2=O)ccc1OC [CU0528]	50 µM (≈ 29.1 µg/mL)	0.057 nM
CCCCCOc1cc(N2CCCN(Cc3cccc4c3ccn4[C@H]3CCN(C)C3=O)C2=O)ccc1OC [CU0644]	450 µM (≈ 233 µg/mL)	1.11 nM
CCCCCOc1cc(N2CCCN(Cc3ccc(CCN4CCCC4(C)C)cc3OC)C2=O)ccc1OC [CU0671]	397 µM (≈ 213 µg/mL)	0.275 nM
COc1cc(CC(=O)N2CCNC(=O)C2)ccc1CN1CCCN(c2ccc(OC)c(OCCCC3CC3)c2)C1=O [CU0562]	480 µM (≈ 271 µg/mL)	0.498 nM
COc1cc(CNC(C)=O)ccc1CN1CCCN(c2ccc(OC)c(OCCCCC3CC3)c2)C1=O [CU0613]	190 µM (≈ 96.8 µg/mL)	0.533 nM
COc1ccc(N2CCCN(Cc3ccnc4c3c(Cl)cn4CC(=O)N(C)C)C2=O)cc1OCCC[C@H]1C[C@@H]1C [CU0610]	37 µM (≈ 21 µg/mL)	0.207 nM
CCCCCOc1cc(N2CCCN(Cc3ccnc4c3c(Cl)cn4CC(=O)NC3(C)COC3)C2=O)ccc1OC [CU0567]	< 10 µM	0.118 nM
COc1cc(CC(=O)N2CCOC(CN(C)C)C2)ccc1CN1CCCN(c2ccc(OC)c(OCCCC3CC3)c2)C1=O (stereo not drawn) [CU0550]	455 µM (≈ 277 µg/mL)	0.031 nM
COc1ccc(N2CCCN(Cc3cccc4c3c(Cl)cn4CC(=O)N(C)C)C2=O)cc1OCCC[C@H]1C[C@@H]1C (racemic) [CU0524]	< 10 µM	0.038 nM
CCCCCOc1cc(N2CCCN(Cc3cccc4c3ccn4CC3(O)CCN(CC(=O)N(C)C)CC3)C2=O)ccc1OC [CU0675]	430 µM (≈ 267 µg/mL)	0.86 nM
COc1ccc(N2CCCN(Cc3cccc4c3c(Cl)cn4CC(=O)N(C)C)C2=O)cc1OCCC[C@H]1C[C@H]1C (racemic) [CU0515]	< 10 µM	0.32 nM
CCCCCOc1cc(N2CCCN(Cc3ccnc4c3c(Cl)cn4CC(=O)NOC)C2=O)ccc1OC [CU0500]	10 µM (≈ 5.44 µg/mL)	1.2 nM
CCCCCOc1cc(N2CCCN(Cc3ccnc4c3c(Cl)cn4CC(=O)NC3COC3)C2=O)ccc1OC [CU0540]	< 10 µM	0.158 nM
CCCCCOc1cc(N2CCCN(Cc3cccc4c3c(Br)cn4CC(=O)N(C)C)C2=O)ccc1OC [CU0543]	256 µM (≈ 150 µg/mL)	0.016 nM
COc1cc(CC(=O)N2CCOCC2)ccc1CN1CCCN(c2ccc(OC)c(OCCCC3CCC3)c2)C1=O [CU0589]	131 µM (≈ 74.1 µg/mL)	0.302 nM
